Test results published in the supplement of paper PMC10331698.
± gives the standard deviation of the averaged measurements.

Columns and labels:
Assay in all cases: level (log10 ratio to DMSO vehicle control); higher = higher biomarker level / cell amount than vehicle control
Conditions in all cases: in DMSO
[1] = compound: O=C(O)C(F)(F)C(F)(F)C(F)(F)C(F)(F)C(F)(F)C(F)(F)C(F)(F)F [Ammonium perfluorooctanoate]
Method: (§1)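 BioMAP Diversity Plus panel of 12 human primary cell co-culture systems (3C, 4H, LPS, SAg, BT, BF4T, BE3C, CASM3C, HDF3CGF, KF3CT, MyoF, Mphg). Compounds were added 1 h before stimulation and left for 24 h (MyoF 48 h; BT 72 h for soluble read-outs or 6 d for IgG). Biomarkers were read by ELISA, cytotoxicity by SRB, PBMC viability and proliferation by Alamar Blue. Each well value was divided by the mean of 8 DMSO control wells on the same plate and log10 transformed; duplicate blinded samples were tested at 4 concentrations.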

[2] = compound: O=S(=O)(O)CCC(F)(F)C(F)(F)C(F)(F)C(F)(F)F [4:2 Fluorotelomer sulfonic acid]
Method: as §1

[3] = compound: C=CC(=O)OCCC(F)(F)C(F)(F)C(F)(F)C(F)(F)C(F)(F)C(F)(F)C(F)(F)C(F)(F)F [8:2 Fluorotelomer acrylate]
Method: as §1

[4] = compound: O=C(CC(=O)C(F)(F)C(F)(F)C(F)(F)F)c1cccs1 [(Perfluorobutyryl)-2-thenoylmethane]
Method: as §1

[5] = compound: O=C(Cl)C(F)(F)C(F)(F)C(F)(F)C(=O)Cl [Hexafluoroglutaryl chloride]
Method: as §1

[6] = compound: O=P(O)(O)CCC(F)(F)C(F)(F)C(F)(F)C(F)(F)C(F)(F)C(F)(F)F [2-(Perfluorohexyl)ethylphosphonic acid]
Method: as §1

[7] = compound: OCCCCC(F)(F)C(F)(F)C(F)(F)C(F)(F)F [4:4 Fluorotelomer alcohol]
Method: as §1

Row | Test System | level (log10) ([1]; 6700 nM) | level (log10) ([1]; 20000 nM) | level (log10) ([1]; 60000 nM) | level (log10) ([2]; 6700 nM) | level (log10) ([2]; 20000 nM) | level (log10) ([2]; 60000 nM) | level (log10) ([3]; 6700 nM) | level (log10) ([3]; 20000 nM) | level (log10) ([3]; 60000 nM) | level (log10) ([4]; 6700 nM) | level (log10) ([4]; 20000 nM) | level (log10) ([5]; 6700 nM) | level (log10) ([5]; 20000 nM) | level (log10) ([5]; 60000 nM) | level (log10) ([6]; 6700 nM) | level (log10) ([6]; 20000 nM) | level (log10) ([6]; 60000 nM) | level (log10) ([7]; 6700 nM) | level (log10) ([7]; 20000 nM) | level (log10) ([7]; 60000 nM)
1 | BE3C:CXCL8/IL-8 | 0.043 ± 0.021 | 0.0095 ± 0.039 | -0.066 ± 0.04 | 0.0165 ± 0.023 | -0.009 ± 0.0085 | 0.0175 ± 0.0064 | -0.019 ± 0.027 | -0.013 ± 0.033 | 0.043 ± 0.021 | -0.0905 ± 0.013 | -0.01 ± 0.023 | 0.0585 ± 0.046 | 0.0345 ± 0.077 | 0.0555 ± 0.083 | -0.064 ± 0.017 | -0.0635 ± 0.0064 | -0.0555 ± 0.06 | -0.013 ± 0.016 | -0.0155 ± 0.0021 | 0.029 ± 0.04
2 | BE3C:HLA-DR | -0.019 ± 0.0071 | -0.0325 ± 0.012 | -0.068 ± 0.017 | -0.013 ± 0.0085 | 0.003 ± 0.0042 | -0.0225 ± 0.0021 | -0.0045 ± 0.011 | 0.009 ± 0.017 | 0.019 ± 0.034 | -0.044 ± 0.0028 | -0.41 ± 0.032 | -0.0075 ± 0.013 | -0.016 ± 0.0057 | -0.007 ± 0.0071 | -0.0045 ± 0.018 | -0.012 ± 0.021 | 0.01 ± 0.038 | -0.0005 ± 0.018 | -0.0075 ± 0.0064 | -0.0035 ± 0.016
3 | LPS:CD69 | -0.0165 ± 0.012 | -0.045 ± 0.0085 | -0.142 ± 0.031 | -0.0435 ± 0.052 | -0.0565 ± 0.029 | -0.058 ± 0.028 | 0.012 ± 0.054 | -0.044 ± 0.05 | -0.052 ± 0.061 | -0.132 ± 0.0014 | -0.0555 ± 0.07 | 0.0045 ± 0.021 | -0.0195 ± 0.07 | -0.005 ± 0.051 | -0.026 ± 0.075 | 0.001 ± 0.051 | 0.0815 ± 0.029 | -0.0335 ± 0.016 | -0.0135 ± 0.015 | -0.0135 ± 0.015
4 | BT:sTNF-alpha | -0.033 ± 0.038 | -0.0095 ± 0.12 | 0.001 ± 0.13 | 0.0815 ± 0.16 | -0.063 ± 0.021 | 0.0095 ± 0.012 | 0.128 ± 0.0057 | 0.034 ± 0.027 | 0.159 ± 0.14 | -0.0385 ± 0.063 | -0.354 ± 0.13 | 0.0505 ± 0.025 | -0.0155 ± 0.037 | 0.104 ± 0.07 | 0.114 ± 0.04 | 0.0475 ± 0.018 | 0.048 ± 0.24 | -0.0875 ± 0.033 | -0.046 ± 0.13 | -0.0085 ± 0.17
5 | BE3C:CD54/ICAM-1 | -0.01 ± 0.014 | -0.0085 ± 0.0021 | -0.0015 ± 0.015 | -0.004 ± 0.0085 | -0.009 ± 0.014 | -0.0155 ± 0.0021 | -0.016 | 0 ± 0.0014 | 0.019 ± 0.04 | -0.0075 ± 0.0064 | -0.102 ± 0.0064 | 0.002 ± 0.0071 | -0.002 ± 0.017 | 0.0075 ± 0.025 | -0.01 ± 0.0028 | -0.02 ± 0.021 | -0.0085 ± 0.03 | 0.0085 ± 0.015 | -0.0025 ± 0.023 | -0.0045 ± 0.0064
6 | LPS:CD142/Tissue Factor | 0.016 ± 0.03 | 0.0045 ± 0.016 | 0.0105 ± 0.015 | -0.051 ± 0.014 | -0.0105 ± 0.016 | -0.0015 ± 0.016 | 0.0375 ± 0.0035 | 0.0245 ± 0.044 | 0.0085 ± 0.03 | -0.004 ± 0.093 | 0.323 ± 0.0028 | 0.0275 ± 0.018 | -0.0025 ± 0.044 | -0.0185 ± 0.0035 | 0.0045 ± 0.1 | 0.054 ± 0.047 | 0.119 ± 0.052 | 0.003 ± 0.027 | 0.031 ± 0.027 | -0.0095 ± 0.023
7 | 4H:CCL26/Eotaxin-3 | -0.005 ± 0.0028 | -0.013 ± 0.0057 | -0.0385 ± 0.028 | -0.084 ± 0.042 | -0.004 ± 0.037 | 0.0225 ± 0.037 | 0.0235 ± 0.0021 | -0.012 ± 0.018 | 0.01 ± 0.048 | -0.041 ± 0.0057 | -0.241 ± 0.016 | 0.016 ± 0.017 | 0.021 ± 0.027 | 0.013 ± 0.016 | -0.052 ± 0.09 | -0.0765 ± 0.066 | 0 ± 0.018 | -0.017 ± 0.021 | -0.0345 ± 0.0021 | -0.025 ± 0.011
